Test results from US8877795B2, “Identification of stabilizers of multimeric proteins” (The Board of Trustees of the Leland Stanford Junior …, priority 2010, dated 2014).
Where two headings read alike, the source gives them in different places.

Experiments:
human wild type TTR = human wild type TTR (Homo sapiens (Human), UniProt P02766); test: Isothermal titration calorimetry (ITC) of ligands against TTR; assay type: binding; settings: for TΔS binding entropy / ΔG binding free energy / ΔH binding enthalpy: ITC; for Kd: TTR 2 μM titrated with ligand 25 μM
Experimental: Calorimetric titrations were carried out on a VP-ITC calorimeter (MicroCal, Northhampton, Mass.). […] Prior to each titration, all samples were degassed for 10 minutes. The initial injection of 3.0 μL was followed by 30 injections of 8.0 μL each (25° C.) to the point that TTR was fully saturated with ligand. Integration of the thermogram after subtraction of blanks yielded a binding isotherm that was analyzed with MicroCal Origin 5.0 software.

TTR [1] = molecular target: T1, TTR (Homo sapiens (Human), UniProt P02766); test: Fluorescence polarization displacement assay (probe 5 displaced from TTR); assay type: binding; settings: probe 5 100 nM, TTR 200 nM; read-out: FP Kapp (apparent binding constant)
Experimental: The affinity of test compounds to TTR was determined as follows. […] The samples were allowed to equilibrate by agitation for 20 min at room temperature and the fluorescence polarization was measured as described above. The data were fit to the following equation [y=(A−D)/(1+(x/C)^B)+D] where A=maximum FP signal, B=slope, C=apparent binding constant (Kapp), and D=minimum FP signal. The apparent binding constant was reported as mean for triplicate experiments and the best data fit was determined by R^2 value.

TTR [2] = molecular target: T1, TTR; settings: read-out: Kd (reported affinity for TTR); cited from earlier work
[3] = molecular target: wild type biotinylated TTR (Homo sapiens (Human), UniProt P02766); test: Surface plasmon resonance (SPR) assay for TTR-ligand interaction; assay type: binding
Experimental: To an ice-cold solution of TTR (20 μM) in PBS was added EZ-Link Sulfo-NHS-LC-Biotin at a ratio of ˜2:1 (biotin:TTR) (minimal biotinylation) and the solution was incubated at room temperature. After 1 hour, un-reacted biotin was removed by passing the sample over a fast (FPLC) desalting column (Superdex™ 75) equilibrated with PBS.
SPR measurements were performed at 25° C. using a Biacore T100 (GE Healthcare) instrument equilibrated in 1% DMSO in PBS as a running buffer. After pretreatment of the streptavidin-coated chip (Sensor Chop SA, Biacore), ˜4000 RU biotinylated TTR was immobilized on one channel leaving the second flow channel as a blank (streptavidin alone) control. For binding measurements, HTS hits were diluted in running buffer (1% DMSO/PBS) and different dilution series were flowed over the chip at 50 μL/min ([…], 600 s wash). A zero concentration sample was used as a negative control. The kinetic data was fitted to a one-to-one binding model using Biacore T100 evaluation software.

WT TTR = WT TTR (Homo sapiens (Human), UniProt P02766); test: Acid-mediated fibril formation assay for TTR amyloidogenesis (turbidity); settings: substoichiometric: ligand 3.0 μM, TTR 3.6 μM, monitored over 5 days
Experimental: The efficacy of each compound to inhibit TTR amyloidogenesis was determined by monitoring the turbidity of TTR aggregation at acidic pH, as described previously. […] The final 1 ml sample mixture was vortexed, then incubated at 37° C. for 72 hours, after which the sample was vortexed and the optical density was measured at 400 nm on a Beckman DU® 640 spectrophotometer. […] The optical density was also corrected for the absorption of all test compounds in the absence of TTR. […] The optical density (400 nm) was measured as described above at 0, 24, 48, 72, 96, and 120 hours. All assays were performed in triplicate and the average values obtained are presented.
TTR was preincubated with small molecules for 30 min at room temperature before amyloidosis was initiated (lowering pH to 4.4, incubation at 37° C.). […] The amyloidogenesis inhibition efficacy of each compound was determined by monitoring the turbidity of TTR (400 nm). The extent of TTR amyloidogenesis was quantitated at a fixed time point (72 h). All amyloid fibril formation data was normalized to TTR amyloidogenesis in the absence of inhibitor, assigned to be 100% fibril formation. […] The aggregation inhibition was monitored over 5 days using the acid-mediated fibril formation assay (compared to 3 days for the fixed time point described above) (FIG. 5B).

TTR [4] = molecular target: T1, TTR; test: Fluorescence polarization saturation binding experiment
Experimental: The binding of probe 5 for TTR was evaluated as follows. […] The samples were allowed to equilibrate by agitation for 20 min at room temperature. Fluorescence polarization (excitation λ 485 nm, emission λ 525 nm, Cutoff λ 515 nm) measurements were taken using SpectraMax M5 Microplate Reader (Molecular Devices). […] Nonspecific FP, produced by the free fluorescent probe 5 as well as by binding of 5 to the plate, was equal to 70±10 mP.

IL-2 = IL-2 (Homo sapiens (Human), UniProt P60568); settings: cited from earlier work
[5] = 25° C., one-to-one binding model, read-out: Kd (ITC)

Sequence of IL-2 (P60568 21-153): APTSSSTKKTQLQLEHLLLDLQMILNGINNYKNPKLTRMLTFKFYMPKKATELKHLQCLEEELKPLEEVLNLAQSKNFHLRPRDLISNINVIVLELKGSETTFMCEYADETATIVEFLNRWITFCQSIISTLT

O=C(O)c1ccc(-c2c(F)cccc2F)cc1 [Compound 1, reference compound]
TΔS binding entropy (human wild type TTR): -21.72 ± 0.26 kcal/mol | ΔG binding free energy (human wild type TTR): -9.74 ± 0.10 kcal/mol | ΔH binding enthalpy (human wild type TTR): -31.46 ± 0.37 kcal/mol | Kd (human wild type TTR; [5]): 72.5 ± 4.7 nM | Kd (human wild type TTR; read-out: ITC Kd): 72.4 nM | apparent binding constant (Kapp) (TTR [1]): 231 nM | Kd (TTR [2]): 80 nM

O=C(O)Cc1ccccc1Nc1c(Cl)cccc1Cl [Diclofenac, reference compound]
TΔS binding entropy (human wild type TTR): 4.08 ± 0.37 kcal/mol | ΔG binding free energy (human wild type TTR): -8.78 ± 0.59 kcal/mol | ΔH binding enthalpy (human wild type TTR): -4.69 ± 0.42 kcal/mol | TΔS binding entropy (human wild type TTR; listed as diclofenac): 4.08 ± 0.37 kcal/mol | ΔG binding free energy (human wild type TTR; listed as diclofenac): -8.78 ± 0.59 kcal/mol | ΔH binding enthalpy (human wild type TTR; listed as diclofenac): -4.69 ± 0.42 kcal/mol | Kd (human wild type TTR; [5]): 370 nM | Kd (human wild type TTR; read-out: ITC Kd): 370 nM | Kd (TTR [1]): 4660 nM | Kd ([3]; 25° C., read-out: Kd (SPR, equilibrium / steady state analysis)): 124 ± 8.91 nM | koff ([3]; SPR): 1.01 s⁻¹ | kon ([3]; SPR): 8.18e+06 M⁻¹ s⁻¹ | lower target residence time than 7 ([3]; SPR): ~40 × | inhibition of fibril formation (WT TTR): ~55%

Fluorescein isothiocyanate [FITC]
change in FP signal upon addition of TTR (TTR [4]): no change in the FP signal

Ro26-4550
IC50 (IL-2; read-out: IC50 (IL-2 antagonist)): 3000 to 6000 nM | IC50 (IL-2; read-out: IC50 (Ro26-4550 bound to IL2)): 6000 nM
